Where two headings read alike, the source gives them in different places.
Legend:
[1] = Solubility in water, 1st fluid and 2nd fluid of the Japanese pharmacopeia disintegration test (shaking, filtration, HPLC); assay type: physicochemical; conditions: thermodynamic from solid
Experimental: That is, the solutions used were the water specified in the disintegration test method of the 13th edition of the Japanese pharmacopeia, the 1st fluid (a model of human gastric juice) and the 2nd fluid(a model of human intestinal juice). The processes for preparing them are as follows:
The 1st fluid (a model of human gastric juice) was an aqueous solution (pH about 1.2) prepared by dissolving sodium chloride (2.0 g) and hydrochloric acid (7.0 mL) in an amount of water such that the total volume is 1,000 mL.
The 2nd fluid (a model of human intestinal juice) was an aqueous solution (pH about 6.8) prepared by mixing a 0.2 M potassium dihydrogen phosphate aqueous solution (250 mL) with a 0.2 N sodium hydroxide aqueous solution (118 mL) and an amount of water such that the total volume is 1,000 mL.
The present compound (Compound A, B, C or D) in the amount of 20 mg was added to each solution (40 mL) set forth above, which was then shaken with a recipro-shaker (170 rpm) for 2 hours. Each sample (4 mL) obtained at 15, 30, 45, 60 and 120 minutes was filtered through a filter having a pore diameter of 0.45 µm to give a sample solution. The concentration of the said compound in the sample solution was determined by high performance liquid chromatography and the solubility was calculated. The high performance liquid chromatographic measurement was performed with HITACHI D-7000 (wave length: 254 nm; column: YMC-PACK C18; column temperature: 40°C; injection volume: 10 µL; flow rate: 1 mL/min; mobile phase: a solution obtained by dissolving sodium 1-octanesufonate (4.3 g) in a solution of phosphoric acid (1 mL) in water (1000 mL), and adding acetonitrile (400 mL) to 600 mL of the thus obtained solution . The retention time of each of Compounds A, B, C and D was about 20 minutes, about 14 minuets, about 25 minutes and about 27 minutes, respectively. […]
In this connection, the measurement was carried out according to the procedure of Reference Example 1.

[2] = Crystallinity by powder X-ray diffractometry; assay type: physicochemical; conditions: for crystallinity: equation of crystallinity
Source text: Whether a compound of the general formula (1) is amorphous or not, or the degree of amorphous status thereof can be determined based on its crystallinity, for example, measured by powder X-ray diffractometry. Generally, the degree of amorphous status can be indicated with the following equation. Degree of Amorphous status = 100 - Crystallinity [formula]
Powder X-ray diffractometry is a method comprising irradiating a powder sample with X-ray to compulsively oscillate electrons contained in the sample material, and measuring at each angle of diffraction the diffraction intensity of the coherent scattering X-ray caused by the compulsively oscillated electrons. The measurement data is indicated with the X-ray diffraction pattern as a diffraction intensity with respect to each angle of diffraction. […] Therefore, an amorphous substance can be distinguished from a crystalline substance based on their X-ray diffraction patterns and/or crystallinities. The measurement by powdery X-ray diffractometry in accordance with the present invention can be carried out with Shimadzu Powder X-ray Diffractometer (XRD-6000) under the following measurement conditions.
• Anticathode: Cu • X-ray tube voltage: 40 kV • X-ray tube current: 30 mA • Goniometer • Driving axle: θ-2θ • Scanning range: 3-49.98° • Scanning rate: 2°/min
The crystallinity was obtained with the soft of Shimazu Powder X-ray Diffractometer by carrying out the corrected calculation treatment of the Lorentz polarization factor of the measured data, calculating the integrated intensity of the peak derived from crystalline substance (Icr) and the integrated intensity of the peak derived from amorphous substance (Ia),respectively and calculating the concentration of crystalline moiety in the test sample, that is the crystallinity based on the ratio thereof by the following equation: x =(1)/(1 + K ×(I a)/(I cr))× 100 [formula] wherein X is a crystallinity; Icr is an integrated intensity of crystalline moiety; Ia is an integrated intensity of amorphous moiety; K is a ratio of the crystalline moiety of X ray intensity scattered from a certain amount of a material to the amorphous moiety thereof (the calculation is usually done under K=1).
Each standard sample was subjected to a powder X-ray diffraction measurement to determine the peak height and crystallinity of each standard sample (the powder X-ray diffraction pattern of the standard samples 1, 2, 3 and 4 being shown in Figures 1, 8, 9 and 10, respectively). A measurement by powdery X-ray diffractometry was carried out with Shimadzu Powder X-ray Diffractometer (XRD-6000) under the following measurement conditions.
Measurement condition: • Anticathode: Cu • X-ray tube voltage: 40 kV • X-ray tube current: 30 mA • Goniometer • Driving axle: θ-2θ • Scanning range: 3-50° • Scanning rate: 2°/min
The crystallinity was calculated with the soft of Shimadzu Powder X-ray Diffractometer. The thus obtained crystallinity of each standard sample was as follows:
These measurements were carried out based on the height of a diffraction peak as an indication, wherein the diffraction peak is characteristic of Compound A. The characteristic diffraction peak is a diffraction peak which can be distinguished from the diffraction peak derived from a pharmaceutically acceptable carrier and can characterize Compound A. Representative examples of the diffraction peak characteristic of Compound A include peaks at θ-2θ of about 8.5°, about 12.8°, about 16.2°, about 20.4°, about 21.4°, about 25.2° and about 26.9°. It is preferred to select a diffraction peak in which the relation between the height of diffraction peak and the crystallinity has a clear linearity.
With respect to each diffraction peak, a graph showing the correlation between the peak height and the crystallinity was made in which the peak height of each standard sample (vertical axis) is potted against the crystallinity (horizontal axis). […]

[3] = pH 1.2, simulated gastric fluid, 1st fluid (model of human gastric juice, pH about 1.2), after 2 hours, crystal form, read-out: Solubility (mg/mL) 1st fluid
[4] = pH 6.8, fassgf or other biorelevant, 2nd fluid (model of human intestinal juice, pH about 6.8), after 2 hours, crystal form, read-out: Solubility (mg/mL) 2nd fluid
[5] = water, solubility after 2 hours, compound in crystal form, 20 mg in 40 mL, read-out: Solubility (mg/mL) Water
[6] = pH 1.2, simulated gastric fluid
[7] = pH 6.8, fassgf or other biorelevant

Row | Compound | solubility at 2 h [1, 3] | solubility at 2 h [1, 4] | solubility at 2 h [1, 5] | crystallinity, another lot separately prepared [2] | crystallinity [2] | solubility at 2 h [1, 6] | solubility at 2 h [1, 7] | solubility at 2 h ([1]; water)
1 | CS(=O)(=O)Nc1cccc([C@@H](O)CNCCOc2ccc3c(c2)[nH]c2ccccc23)c1.Cl [Compound A, (R)-N-[3-[2-[2-(9H-carbazol-2-yloxy)ethylamino]-1-hydroxyethyl]phenyl]methanesulfonamide hydrochloride] | 0.002 mg/mL | 0.005 mg/mL | 0.123 mg/mL | 88.8% | 83.5% |  |  | 
2 | CS(=O)(=O)Nc1cc([C@@H](O)CNCCOc2ccc3c(c2)[nH]c2ccccc23)ccc1O.O=C(O)C(O)C(O)C(=O)O [Compound B, (R)-N-[5-[2-[2-(9H-carbazol-2-yloxy)ethylamino]-1-hydroxyethyl]-2-hydroxyphenyl]methanesulfonamide D-tartrate] | 0.003 mg/mL | 0.003 mg/mL | 1.34 mg/mL | 70.5% | 61.1% |  |  | 
3 | CS(=O)(=O)Nc1cc([C@@H](O)CNCCOc2ccc3c(c2)[nH]c2ccccc23)ccc1Cl.Cl [Compound C, (R)-N-[5-[2-[2-(9H-carbazol-2-yloxy)ethylamino]-1-hydroxyethyl]-2-chlorophenyl]methanesulfonamide hydrochloride] |  |  |  | 72.0% | 70.3% | 0.008 mg/mL | 0.014 mg/mL | 0.471 mg/mL
4 | CS(=O)(=O)Nc1cc([C@@H](O)CNCCOc2ccc3c(c2)[nH]c2ccccc23)ccc1Br.Cl [Compound D, (R)-N-[5-[2-[2-(9H-carbazol-2-yloxy)ethylamino]-1-hydroxyethyl]-2-bromophenyl]methanesulfonamide hydrochloride] |  |  |  |  |  | 0.035 mg/mL | 0.012 mg/mL | 0.701 mg/mL

From EP1219604A1, “METHOD FOR IMPROVING THE SOLUBILITY OF TRICYCLIC AMINO ALCOHOL DERIVATIVES” (Asahi Kasei Kabushiki Kaisha, priority 1999, dated 2001)
